Assay results: patent US10562902B2, “IRAK4 inhibitor and use thereof” (BEIJING HANMI PHARMACEUTICAL CO., LTD., priority 2015, dated 2020)

Target: IRAK4 kinase (Homo sapiens (Human), UniProt Q9NWZ3)
Assay: IRAK4 kinase activity inhibition assay
Format: biochemical
Settings: ADP-Glo kinase assay, 10 μM ATP, MBP substrate
Protocol: IRAK4 kinase (purchased from Life Technologies, Cat. No.: PR5612U) was diluted to 2 folds of the final concentration (the final concentration is […]) with reaction buffer (40 mM Tris-HC1, pH 7.5; 20 mM MgCl2; 0.1 mg/mL BSA; 1 mM DTT), and added to a 384-well plate at 5 μL/well. The test drugs were 10-fold serial diluted from 10 μM to set six concentration points and added to the test wells of the 384-well plate at 2.5 μL/well. After incubation for 10 min at 25° C., 10 μM of ATP and 0.1 μg/μL of an enzyme reaction substrate, myelin basic protein MBP (purchased from Signal Chem, Cat. No.: M42-51N) were added at 2.5 μL/well, and reacted at 25° C. for 60 minutes. After the reaction was completed, the kinase activity assay was performed using the ADP-Glo™ kinase assay kit (purchased from Promega, Cat. No.: V9102) according to the manufacture's instruction, i.e., 10 μL of ADP-Glo reaction reagent was first added and reacted at 25° C. for 40 minutes, 10 μL of the reaction mixture was taken and mixed with 10 μL of ADP-Glo detection reagent, and reacted at 25° C. for 30 minutes. The kinase activity was then detected, and the IC50 values of the test drugs were calculated.

IRAK4 kinase, sequence (Q9NWZ3 whole entry): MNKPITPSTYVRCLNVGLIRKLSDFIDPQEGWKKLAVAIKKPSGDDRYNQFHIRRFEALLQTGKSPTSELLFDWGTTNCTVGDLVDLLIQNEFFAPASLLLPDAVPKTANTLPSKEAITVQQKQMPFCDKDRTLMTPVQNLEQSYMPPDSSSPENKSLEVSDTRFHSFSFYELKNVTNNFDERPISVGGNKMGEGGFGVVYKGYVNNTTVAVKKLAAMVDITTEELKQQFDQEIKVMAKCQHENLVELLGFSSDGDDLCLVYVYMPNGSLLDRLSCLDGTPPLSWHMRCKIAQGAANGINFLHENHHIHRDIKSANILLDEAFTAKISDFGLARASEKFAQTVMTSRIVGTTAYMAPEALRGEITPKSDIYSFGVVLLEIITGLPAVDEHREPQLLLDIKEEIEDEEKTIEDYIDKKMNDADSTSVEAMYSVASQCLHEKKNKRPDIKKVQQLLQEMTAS

IC50	SMILES
≤ 0.1 µM	Cc1cc(Nc2nc(N[C@H]3CC[C@H](O)CC3)c3c(ccn3-c3cnn(C)c3)n2)sn1 [Example 1, trans-4-[2-(3-methylisothiazol-5-ylamino)-5-(1-methyl-1H-pyrazol-4-yl)-5H-pyrrolo[3,2-d]pyrimidin-4-ylamino]cyclohexanol]
≤ 0.1 µM	Cc1cc(Nc2nc(NC(C)C)c3c(ccn3-c3cnn(C)c3)n2)sn1 [Example 2]
0.1 to 1 µM	Cc1cc(Nc2nc(NCCO)c3c(ccn3-c3cnn(C)c3)n2)sn1 [Example 3]
≤ 0.1 µM	Cc1cc(Nc2nc(NCCCO)c3c(ccn3-c3cnn(C)c3)n2)sn1 [Example 4]
≤ 0.1 µM	Cc1cc(Nc2nc(NCCCCO)c3c(ccn3-c3cnn(C)c3)n2)sn1 [Example 5]
0.1 to 1 µM	CNC(=O)CCNc1nc(Nc2cc(C)ns2)nc2ccn(-c3cnn(C)c3)c12 [Example 6]
0.1 to 1 µM	CNC(=O)CCCNc1nc(Nc2cc(C)ns2)nc2ccn(-c3cnn(C)c3)c12 [Example 7]
0.1 to 1 µM	CC(=O)NCCNc1nc(Nc2cc(C)ns2)nc2ccn(-c3cnn(C)c3)c12 [Example 8]
0.1 to 1 µM	CC(=O)NCCCNc1nc(Nc2cc(C)ns2)nc2ccn(-c3cnn(C)c3)c12 [Example 9]
0.1 to 1 µM	Cc1cc(Nc2nc(NCCN3CCOCC3)c3c(ccn3-c3cnn(C)c3)n2)sn1 [Example 10]
0.1 to 1 µM	Cc1cc(Nc2nc(NCCCN3CCOCC3)c3c(ccn3-c3cnn(C)c3)n2)sn1 [Example 11]
0.1 to 1 µM	Cc1cc(Nc2nc(NC3CCC3)c3c(ccn3-c3cnn(C)c3)n2)sn1 [Example 12]
≤ 0.1 µM	Cc1cc(Nc2nc(NC3CC(O)C3)c3c(ccn3-c3cnn(C)c3)n2)sn1 (stereo not shown) [Example 13]
≤ 0.1 µM	Cc1cc(Nc2nc(N[C@H]3C[C@@](C)(O)C3)c3c(ccn3-c3cnn(C)c3)n2)sn1 [Example 14]
0.1 to 1 µM	Cc1cc(Nc2nc(N[C@H]3C[C@@H](N4CCCCC4)C3)c3c(ccn3-c3cnn(C)c3)n2)sn1 [Example 15]
0.1 to 1 µM	Cc1cc(Nc2nc(N[C@H]3C[C@H](N4CCCCC4)C3)c3c(ccn3-c3cnn(C)c3)n2)sn1 [Example 16]
0.1 to 1 µM	Cc1cc(Nc2nc(NC3CCCC3)c3c(ccn3-c3cnn(C)c3)n2)sn1 [Example 17]
≤ 0.1 µM	Cc1cc(Nc2nc(N[C@H]3CC[C@@H](O)C3)c3c(ccn3-c3cnn(C)c3)n2)sn1 [Example 18]
≤ 0.1 µM	Cc1cc(Nc2nc(N[C@@H]3C[C@H](CO)[C@@H](O)[C@H]3O)c3c(ccn3-c3cnn(C)c3)n2)sn1 [Example 19]
0.1 to 1 µM	Cc1cc(Nc2nc(N[C@@H]3CCOC3)c3c(ccn3-c3cnn(C)c3)n2)sn1 [Example 20]
0.1 to 1 µM	Cc1cc(Nc2nc(N[C@H]3CCOC3)c3c(ccn3-c3cnn(C)c3)n2)sn1 [Example 21]
0.1 to 1 µM	Cc1cc(Nc2nc(NC3CCCCC3)c3c(ccn3-c3cnn(C)c3)n2)sn1 [Example 22]
0.1 to 1 µM	Cc1cc(Nc2nc(NC3CCC(=O)CC3)c3c(ccn3-c3cnn(C)c3)n2)sn1 [Example 23]
0.1 to 1 µM	Cc1cc(Nc2nc(N[C@H]3CC[C@](C)(O)CC3)c3c(ccn3-c3cnn(C)c3)n2)sn1 [Example 24]

IC50	SMILES
0.1 to 1 µM	CO[C@H]1CC[C@@H](Nc2nc(Nc3cc(C)ns3)nc3ccn(-c4cnn(C)c4)c23)CC1 [Example 25]
≤ 0.1 µM	CO[C@H]1CC[C@H](Nc2nc(Nc3cc(C)ns3)nc3ccn(-c4cnn(C)c4)c23)CC1 [Example 26]
0.1 to 1 µM	CC(=O)N[C@H]1CC[C@H](Nc2nc(Nc3cc(C)ns3)nc3ccn(-c4cnn(C)c4)c23)CC1 [Example 27]
0.1 to 1 µM	Cc1cc(Nc2nc(N[C@H]3CC[C@H](N4CCCCC4)CC3)c3c(ccn3-c3cnn(C)c3)n2)sn1 [Example 28]
≤ 0.1 µM	Cc1cc(Nc2nc(NC3CCOCC3)c3c(ccn3-c3cnn(C)c3)n2)sn1 [Example 29]
0.1 to 1 µM	Cc1cc(Nc2nc(NC3CCN(C)CC3)c3c(ccn3-c3cnn(C)c3)n2)sn1 [Example 30]
0.1 to 1 µM	CNC(=O)c1ccc(Nc2nc(Nc3cc(C)ns3)nc3ccn(-c4cnn(C)c4)c23)cc1 [Example 31]
0.1 to 1 µM	Cc1cc(Nc2nc(NC(C)C)c3c(ccn3-c3cnn(C4CCOCC4)c3)n2)sn1 [Example 32]
0.1 to 1 µM	Cc1cc(Nc2nc(N[C@H]3CC[C@H](O)CC3)c3c(ccn3-c3ccccc3)n2)sn1 [Example 33]
0.1 to 1 µM	Cc1cc(Nc2nc(N[C@H]3CC[C@H](O)CC3)c3c(ccn3-c3ccc(F)cc3)n2)sn1 [Example 34]
1 to 10 µM	Cc1cc(Nc2nc(NC(C)C)c3c(ccn3-c3cccc(C(=O)O)c3)n2)sn1 [Example 35]
1 to 10 µM	Cc1cc(Nc2nc(NC(C)C)c3c(ccn3-c3cccc(S(C)(=O)=O)c3)n2)sn1 [Example 36]
0.1 to 1 µM	Cc1cc(Nc2nc(NC(C)C)c3c(ccn3-c3cccnc3)n2)sn1 [Example 37]
≤ 0.1 µM	Cc1cc(Nc2nc(N[C@H]3CC[C@H](O)CC3)c3c(ccn3-c3cccnc3)n2)sn1 [Example 38]
1 to 10 µM	Cc1cc(Nc2nc(NC(C)C)c3c(ccn3-c3ccc(N)nc3)n2)sn1 [Example 39]
0.1 to 1 µM	Cc1cc(Nc2nc(NC3CCOCC3)c3c(ccn3-c3ccncc3)n2)sn1 [Example 40]
0.1 to 1 µM	Cc1cc(Nc2nc(NC(C)C)c3c(ccn3-c3ccnc(O)c3)n2)sn1 [Example 41]
0.1 to 1 µM	COc1cc(-n2ccc3nc(Nc4cc(C)ns4)nc(NC(C)C)c32)ccn1 [Example 42]
0.1 to 1 µM	Cc1cc(Nc2nc(NC(C)C)c3c(ccn3-c3ccc4c(c3)OCO4)n2)sn1 [Example 43]
1 to 10 µM	Cc1cc(Nc2nc(NC(C)C)c3c(ccn3-c3cccc4c3cnn4C)n2)sn1 [Example 44]
0.1 to 1 µM	CC(C)Nc1nc(Nc2cnn(C3CCCCC3)c2)nc2ccn(-c3cnn(C)c3)c12 [Example 45, N^2-(1-cyclohexyl-1H-pyrazol-4-yl)-N^4-isopropyl-5-(1-methyl-1H-pyrazol-4-yl)-5H-pyrrolo[3,2-d]pyrimidin-2,4-diamine]
0.1 to 1 µM	Cn1cc(Nc2nc(N[C@H]3CC[C@H](O)CC3)c3c(ccn3-c3cnn(C)c3)n2)cn1 [Example 46]
0.1 to 1 µM	CC(C)Nc1nc(Nc2cnn(C3CCOCC3)c2)nc2ccn(-c3cnn(C)c3)c12 [Example 47]
≤ 0.1 µM	CCNC(=O)c1csc(Nc2nc(NC3CCOCC3)c3c(ccn3-c3cnn(C)c3)n2)c1 [Example 49]

IC50	SMILES
0.1 to 1 µM	CN(C)C(=O)c1csc(Nc2nc(NC3CCOCC3)c3c(ccn3-c3cnn(C)c3)n2)c1 [Example 50]
≤ 0.1 µM	CNC(=O)c1cc(Nc2nc(NC3CCOCC3)c3c(ccn3-c3cnn(C)c3)n2)cs1 [Example 51]
0.1 to 1 µM	CN(C)C(=O)c1cc(Nc2nc(NC3CCOCC3)c3c(ccn3-c3cnn(C)c3)n2)cs1 [Example 52]
0.1 to 1 µM	Cc1cc(Nc2nc(N(C)C3CCOCC3)c3c(ccn3-c3cnn(C)c3)n2)sn1 [Example 53, N^4-methyl-N^2-(3-methylisothiazol-5-yl)-5-(1-methyl-1H-pyrazol-4-yl)-N^4-(tetrahydropyran-4-yl)-5H-pyrrolo[3,2-d]pyrimidine-2,4-diamine]
≤ 0.1 µM	Cc1cc(Nc2nc(OC(C)C)c3c(ccn3-c3cnn(C)c3)n2)sn1 [Example 54, [4-isopropoxy-5-(1-methyl-1H-pyrazol-4-yl)-5H-pyrrolo[3,2-d]pyrimidin-2-yl]-(3-methylisothiazol-5-yl)amine]
≤ 0.1 µM	COCCOc1nc(Nc2cc(C)ns2)nc2ccn(-c3cnn(C)c3)c12 [Example 55]
0.1 to 1 µM	COCC(C)Oc1nc(Nc2cc(C)ns2)nc2ccn(-c3cnn(C)c3)c12 (stereo not shown) [Example 56]
0.1 to 1 µM	COCCCOc1nc(Nc2cc(C)ns2)nc2ccn(-c3cnn(C)c3)c12 [Example 57]
0.1 to 1 µM	Cc1cc(Nc2nc(OCC3CCOC3)c3c(ccn3-c3cnn(C)c3)n2)sn1 (stereo not shown) [Example 58]
0.1 to 1 µM	Cc1cc(Nc2nc(OCc3ccccn3)c3c(ccn3-c3cnn(C)c3)n2)sn1 [Example 59]
0.1 to 1 µM	Cc1cc(Nc2nc(OC3CCC3)c3c(ccn3-c3cnn(C)c3)n2)sn1 [Example 60]
≤ 0.1 µM	Cc1cc(Nc2nc(OC3COC3)c3c(ccn3-c3cnn(C)c3)n2)sn1 [Example 61]
≤ 0.1 µM	Cc1cc(Nc2nc(OC3CC(N4CCCCC4)C3)c3c(ccn3-c3cnn(C)c3)n2)sn1 (stereo not shown) [Example 62]
0.1 to 1 µM	Cc1cc(Nc2nc(OC3CCCC3)c3c(ccn3-c3cnn(C)c3)n2)sn1 [Example 63]
≤ 0.1 µM	Cc1cc(Nc2nc(O[C@@H]3CCOC3)c3c(ccn3-c3cnn(C)c3)n2)sn1 [Example 65]
≤ 0.1 µM	Cc1cc(Nc2nc(OC3CCCCC3)c3c(ccn3-c3cnn(C)c3)n2)sn1 [Example 66]
0.1 to 1 µM	Cc1cc(Nc2nc(OC3CCC(O)CC3)c3c(ccn3-c3cnn(C)c3)n2)sn1 (stereo not shown) [Example 67]
0.1 to 1 µM	COC1CCC(Oc2nc(Nc3cc(C)ns3)nc3ccn(-c4cnn(C)c4)c23)CC1 (stereo not shown) [Example 68]
0.1 to 1 µM	Cc1cc(Nc2nc(OC3CCCN(C)C3)c3c(ccn3-c3cnn(C)c3)n2)sn1 (stereo not shown) [Example 69]
0.1 to 1 µM	CC(=O)N1CCCC(Oc2nc(Nc3cc(C)ns3)nc3ccn(-c4cnn(C)c4)c23)C1 (stereo not shown) [Example 70]
0.1 to 1 µM	Cc1cc(Nc2nc(OC3CCNCC3)c3c(ccn3-c3cnn(C)c3)n2)sn1 [Example 71]
0.1 to 1 µM	Cc1cc(Nc2nc(OC3CCN(C)CC3)c3c(ccn3-c3cnn(C)c3)n2)sn1 [Example 72]
